Laboratory results taken from US7220732B2, “Compounds useful as photodynamic therapeutic agents” (priority 2002, dated 2007).

Experiments:
MRC5 cells = assay: Fluorescence microscopy uptake study in MRC5 cells; type: cell-based; conditions: 10^−5 M
Protocol: Cells were seeded at a density of 30,000 cells/well in chamber slides and allowed to adhere for 24 hr. A compound of the present invention (10^−5 M) was then added to each chamber and incubated at 37° C. in the dark over time, for example, 15 min, 30 min, 1 hr, 3 hr and 6 hr. The medium was removed after the specified time and the cells were washed 4 times with medium free of that compound of the invention. The cells were then fixed with 3.7% (v/v) formaldehyde for 15 min at 37° C. The fixative solution was removed and the cells were washed twice with sterile PBS. DAPI nuclear stain (1/1000) was then incubated with the cells for 10 is min at 37° C., following which the cells were washed twice with PBS. Cells were then mounted in Vectashield (Trade Mark) mounting medium.
LabWorks (Bioimaging Systems) was used to calculate the average fluorescence intensity per cell for each of the different time points used in the uptake and efflux studies for the compounds of the present invention. […] The DAPI filter was used to accurately count the number of cells in each field of view and the rhodamine filter was used to quantify the fluorescence of the compounds of the present invention.
Using the assay method set out above under the heading “Fluorescence Microscopy”, the uptake of 2a was examined for HeLa and MRC5 […] cell lines and the data are illustrated in FIGS. 6a and 6b, respectively. […]

HeLa cancer cells = assay: Preliminary light toxicity assay; type: cell-based; conditions: 24 hours exposure, 15 minutes irradiation >570 nm
Protocol: HeLa cancer calls were exposed to 2a in varying concentrations for 24 hours. 2a laden medium was removed and replaced with fresh medium. Cells were irradiated at constant temperature of 37° C. for 15 minutes with light from a 100 W or 500 W halogen lamp passed through a red glass and water filter barrier, thereby ensuring cells are irradiated with light of more than 570 nm. Irradiated cells were incubated for a further 24 hrs at 37° C. MT cell viability assay was performed.
The dark toxicity effect may be caused by the micellar delivery vehicle itself.

[1] = Spectroscopic absorbance properties; type: physicochemical
From the text: The absorption bands of each photosensitiser are relatively insensitive to solvent changes with solutions in water/Cremophor resulting in a further bathochromic shift of ˜10 nm (Table 1). Excitation of chloroform solutions of the 2a and 4a at 635 nm gave a fluorescence band at 672 and 673 nm respectively (FIG. 2, Table 2). […] The reduction in fluorescence quantum yield in the series would imply more efficient population of the triplet excited state which would benefit singlet oxygen production. The ability of 2 and 4 to produce singlet oxygen would be a prerequisite to them being potential PDT agents.

HeLa cells [2] = assay: F-actin staining fluorescence microscopy of treated HeLa cells; type: cell-based
Protocol: FIG. 15 illustrates a control experiment which is a fluorescence microscope image of F-actin stained HeLa cells (with rhodamine phalloidine, red colour) 24 hours after treatment with Compound 2a and no exposure to light (0 min light dose). FIG. 15 illustrates such F-Actin stained cells are live.
FIG. 16 confirms cell death following treatment with Compound 2a and 30 minute 500 W light dose, using fluorescence microscopy. More specifically, FIG. 16 is a fluorescence microscope image of F-actin stained HeLa cells (with rhodamine phalloidine, red colour) 24 hours after treatment with Compound 2a and 30 minute light dose.

HeLa cells [3] = assay: Fluorescence microscopy cellular localisation (DAPI dual staining); type: cell-based; conditions: 10^−5 M, DAPI nuclear stain
Protocol: Cells were seeded at a density of 30,000 cells/well in chamber slides and allowed to adhere for 24 hr. 2a (10^−5 M) was then added to each chamber and incubated at 37° C. in the dark for either 1 hr or 3 hrs at 37° C.—a one hour incubation was used for FIGS. 4 and 5. The medium was removed and the cells were washed 4 times with drug-free (2a free) medium. The cells were then fixed with 3.7% (v/v) formaldehyde for 15 min at 37° C. The fixative solution was removed and the cells were washed twice with sterile PBS. DAPI (4′,6-diamidino-2-phenylindole) nuclear stain (1/1000) was then incubated with the cells for 10 min at 37° C., following which the cells were washed twice with PBS. Cells were then mounted in Vectashield (Trade Mark) mounting medium.
The cells were viewed using an Axio Zeiss fluorescent microscope. The cells were examined at the different time points using two different filters. The rhodamine filter, which is specific for the wavelength region in which 2a fluoresces, was used to visualise 2a. The DAPI filter was employed to examine the nuclei of the cells.
Cancer cellular uptake of a photosensitiser is a prerequisite for it to act as a PDT agent. Delivery of our proposed PDT agents required formulation of the sensitisers in order to impart water solubility. […]

[4] = Water/Cremophor (100:1), room temperature

fwhm (full width at half maximum) ([1]; CHCl3, room temperature): 49 nm
ε (molar extinction coefficient) ([1]; CHCl3, room temperature): 79,000 M^−1cm^−1
λmax (absorbance) ([1]; CHCl3, room temperature): 650 nm
fwhm (full width at half maximum) [1, 4]: 53 nm
λmax (absorbance) [1, 4]: 658 nm
SMILES: F[B-]1(F)n2c(-c3ccccc3)cc(-c3ccccc3)c2N=C2C(c3ccccc3)=CC(c3ccccc3)=[N+]21 [Compound 2a]
time of maximum uptake (MRC5 cells): 200 min
dose response (HeLa cancer cells; 100 W light source, compared with 500 W): poorer response
EC50 (HeLa cancer cells; 500 W light source): 1 µM
cell state by F-actin staining (HeLa cells [2]; 24 hours after treatment and 30 minute 500 W light dose): cell death
cell state by F-actin staining (HeLa cells [2]; 24 hours after treatment, no exposure to light): live
cellular localisation (HeLa cells [3]): primarily at the endoplasmic reticulum and not in the nucleus
